Chromatographic logP and log p data for 3 compounds are collected here from patent publication EP1978023A1, “Pyridazines as fungicides” (Bayer CropScience Aktiengesellschaft, priority 2007, dated 2008).

The conditions of data set [1]: HPLC reversed-phase C 18; 40°C; 0.1% aqueous formic acid and acetonitrile, linear gradient 10% to 95% acetonitrile.
Excerpt: (§1) Die Kalibrierung wurde jeweils mit unverzweigten Alkan-2-onen (3 bis 16 Kohlenstoff Atome) mit bekannten logP Werten durchgeführt (Bestimmung von den logP Werten über die Retentionszeiten durch lineare Interpolation zwischen zwei bestimmten Alkanonen).

Excerpt for physchem: as §1

In the case of `CC1(O)OC(=O)C(c2cccs2)=C1c1ccc(Cl)s1` (stereo not shown) [(3), 4-(5-Chlor-2-thienyl)-3-(2-thienyl)-5-hydroxy-5-methylfuran-2(5H)-on], the chromatographic logP (in general, lipophilicity estimated from chromatographic retention) in the data set “physchem” was found to be 2.9. Turning to `Cc1nnc(Cl)c(-c2cccs2)c1-c1ccc(Cl)s1` [Beispiel 11, 3-Chlor-5-(5-chlor-2-thienyl)-4-(2-thienyl)-6-methylpyridazin], the log p in data set [1] is 3,56. Also, the chromatographic logP in the data set “physchem” is 3.56.

As to `Cc1n[nH]c(=O)c(-c2cccs2)c1-c1ccc(Cl)s1` [(4), 5-(5-Chlor-2-thienyl)-4-(2-thienyl)-6-methylpyridazin-3(2H)-on], the chromatographic logP in the data set “physchem” is 2.71.
